Measurements: patent US9642829B2, “Antifungal compound and uses thereof” (The University of Hong Kong, priority 2012, dated 2017)

Experiments:
[1] = test system: C. neoformans; assay: Antifungal susceptibility (MIC/MFC), CLSI criteria, reading after 72 h; assay type: cell-based, Cryptococcus neoformans; settings: 0.5 McFarland inoculum (10^6 cells/ml)
Procedure: (§1) Antifungal activity of the small molecules was evaluated using USA standards, Clinical and Laboratory Standards Institute (CLSI) criteria. In brief, inocula from 24 h Candida cultures on Sabourauds's dextore agar were standardized to a turbidity equivalent of 0.5 McFarland standards at 520 nm with a spectrophotometer. The suspensions were further diluted in Rosewell Park Memorial Institute (RPMI) 1640 medium (Life technologies, New York, USA) to yield an inoculum concentration of approximately 0.5 1×10^3 to 2.5 1×10^3 cells/ml. Minimum inhibitory concentration (MIC) and minimum fungicidal concentration (MFC) assay was performed in 96-well plates (Iwaki, Tokyo, Japan) and each of the Candida species was exposed to a double dilution of SM21. Amphotericin B was used as a positive control. All the experiments were preformed three occasions with duplicates for all isolates. The plates were incubated at 35° C. for 48 h to evaluate MIC. In the case of Cryotococcus neoformans, reading were taken after 72 h. Aforementioned assay was performed for C. albicans ATCC 90028, C. albicans SC5314 and 10 C. albicans clinical isolates. Moreover, MIC/MFC determination was carried out for other fungal species such as C. glabrata, C. krusei, C. tropicalis, C. parapsilosis, C. neoformans, Aspergillus fumigates and Penicillium marneffei. […]

[2] = test system: Aspergillus fumigatus; assay: Antifungal susceptibility (MIC/MFC), CLSI criteria; assay type: cell-based; settings: 0.5 McFarland inoculum (10^6 cells/ml)
Procedure: (§2) Antifungal activity of the small molecules was evaluated using USA standards, Clinical and Laboratory Standards Institute (CLSI) criteria. In brief, inocula from 24 h Candida cultures on Sabourauds's dextore agar were standardized to a turbidity equivalent of 0.5 McFarland standards at 520 nm with a spectrophotometer. The suspensions were further diluted in Rosewell Park Memorial Institute (RPMI) 1640 medium (Life technologies, New York, USA) to yield an inoculum concentration of approximately 0.5 1×10^3 to 2.5 1×10^3 cells/ml. Minimum inhibitory concentration (MIC) and minimum fungicidal concentration (MFC) assay was performed in 96-well plates (Iwaki, Tokyo, Japan) and each of the Candida species was exposed to a double dilution of SM21. Amphotericin B was used as a positive control. All the experiments were preformed three occasions with duplicates for all isolates. The plates were incubated at 35° C. for 48 h to evaluate MIC. In the case of Cryotococcus neoformans, reading were taken after 72 h. Aforementioned assay was performed for C. albicans ATCC 90028, C. albicans SC5314 and 10 C. albicans clinical isolates. Moreover, MIC/MFC determination was carried out for other fungal species such as C. glabrata, C. krusei, C. tropicalis, C. parapsilosis, C. neoformans, Aspergillus fumigates and Penicillium marneffei. […] Next using dose-dependent assay we tested that MIC/MFC of SM21 from 10^3 cells/ml to 10^7 cells/ml of C. albicans (Table 2). Each of the foregoing experiment was repeated on three different occasions.

[3] = test system: Penicillium marneffei; assay: Antifungal susceptibility (MIC/MFC), CLSI criteria; assay type: cell-based; settings: 0.5 McFarland inoculum (10^6 cells/ml)
Procedure: as §2

[4] = test system: C. albicans drug resistant isolate; assay: Susceptibility of multidrug resistant clinical isolates, CLSI M27A broth microdilution; assay type: cell-based, Candida albicans; settings: C. albicans T1675; resistant to Fluconazole, Itraconazole
From the text: (§3) Oral Biosciences laboratory has one of the largest collections of fungal isolates, particular that of Candida species in the world. In our previous studies, we have found multidrug resistant clinical isolates of Candida species against existing antifungals. In particular, some of these strains are resistant to best antifungal agents to date such as caspofungin, amphotericin B and fluconazole. Therefore, we performed antifungal susceptibility testing for SM21 against these drug resistant Candida isolates suing CLSI M27A brothmicrodultion assay and CLSI M44-A disc diffusion assay.

[5] = test system: C. glabrata drug resistant isolates; assay: as above; assay type: cell-based, Candida glabrata
From the text: as §3

[6] = test system: C. tropicalis drug resistant isolates; assay: as above; assay type: cell-based, Candida tropicalis; settings: resistant to Itraconazole
From the text: as §3

[7] = test system: C. albicans SC5314 and C. albicans ATCC 90028; assay: Antifungal activity compared with caspofungin and amphotericin B (FIG. 2, CLSI M44-A disc diffusion); assay type: cell-based, Candida albicans
From the text: as §3

[8] = test system: resistant isolate T-1549; assay: as above; assay type: cell-based, C. guilliermondii; settings: resistant isolate T-1549 (FIG. 2C)
From the text: as §3

[9] = test system: Escherichia coli; assay: Antibacterial activity (FIG. 3); assay type: cell-based; settings: dose of 2 μg
Procedure: (§4) FIGS. 3A-C. Antibacterial activity of SM21 at dose of 2 μg was examined for three bacterial species together with other antifungal agents caspofungin, amphotericin B and chlorhexidine. (A) Lactobacillus acidophilus (B) Streptococcus mutans and (C) Escherichia coli were used for the experiments.
as §3

[10] = test system: Lactobacillus acidophilus; assay: Antibacterial activity (FIG. 3); assay type: cell-based; settings: dose of 2 μg
Procedure: as §4, §3

[11] = test system: Streptococcus mutans; assay: Antibacterial activity (FIG. 3); assay type: cell-based; settings: dose of 2 μg
Procedure: as §4, §3

[12] = test system: mixed species Candida biofilms; assay: Mixed species Candida biofilm MIC, XTT reduction assay; assay type: cell-based; settings: 48 h mixed species biofilms, two Candida species at 1×10^7 cells/ml each
Procedure: Clinical studies have shown that some of the Candida species could involve mixed Candida species such as C. albicans with non-albicans Candida species. Therefore, next we formed mixed species biofilms using the methods we have used in our previous published studies. This methodology is essentially similar to what mentioned under mono-species biofilms except initial inoculums involve two Candida species at equal inoculums size of 1×10^7 cells/ml. After 48 h of growth, mixed species Candida biofilms were subjected to serially diluted concentration of SM21 and MIC was determined by XTT reduction assay (FIG. 5).

[13] = test system: Vero cell line; assay: Cytotoxicity assay; assay type: cell-based; settings: at effective concentration
[14] = test system: C. albicans, C. glabrata, C. krusei, C. tropicalis, C. parapsilosis, C. neoformans, Aspergillus fumigates and Penicillium marneffei; assay: Antifungal activity against wide range of fungal species (summary); assay type: cell-based; settings: range over fungal species
Procedure: as §1

In the case of CN(C)c1ccc(/C=C/c2cc(C(C)(C)C)[o+]c(C(C)(C)C)c2)cc1.[O-][Cl+3]([O-])([O-])[O-] [SM21], the “Susceptibility (MIC90)” value [1] is reported as 0.4 µg/mL, the “Susceptibility (MIC90)” value [2] is reported as 6.25 µg/mL and the “Susceptibility (MIC90)” value [3] is reported as 0.2 µg/mL. For the same molecule, the MIC [4] was 0.5 µg/mL, the MIC ([5]; C. glabrata 1570, resistant to Itraconazole) was 0.5 µg/mL and the MIC ([5]; C. glabrata T1585, resistant to Fluconazole, Itraconazole, ketoconazole, Voriconazole) was 1 µg/mL. For the same molecule, the MIC ([5]; C. glabrata T1672, resistant to Itraconazole, Ketaconazole) was 0.5 µg/mL, the MIC ([6]; C. tropicalis T789) was 1 µg/mL and the MIC ([6]; C. tropicalis T1148) was 0.5 µg/mL. For the same molecule, the MIC ([6]; C. tropicalis T1427) was 1 µg/mL, the “Susceptibility of the strain to the agent” value ([7]; C. albicans ATCC 90028, CLSI quality control strain (FIG. 2B)) was “susceptible” and the “Susceptibility of the strain to the agent” value ([7]; C. albicans SC5314 (FIG. 2A)) was “susceptible”. The “Effectiveness against resistant isolate” value [8] was “effective”, the Antibacterial activity [9] was “not anti-bacterial” and the Antibacterial activity [10] was “not anti-bacterial”. The Antibacterial activity [11] was “not anti-bacterial”, the “Active concentration (MIC by XTT reduction assay) against mixed species biofilms” value [12] was 25 µg/mL and the Cytotoxicity [13] was “no cytotoxicity”. The “Concentration with antifungal activity against wide range of fungal species” value [14] was 0.2 to 6.25 µg/mL.
